According to article PMC11678869, “Functional Role of Odorant-Binding Proteins in Response to Sex Pheromone Component Z8-14:Ac in Grapholita molesta (Busck)” (Insects, 2024):

How the values were obtained:
[1] = target: rGmolPBP3 (Grapholita molesta, UniProt A0A059VBP3); test: Fluorescence competitive binding assay with 1-NPN probe
Source text: (§1) Previous researchers have successfully expressed rGmolPBP1, rGmolPBP2, rGmolPBP3, rGmolGOBP1, and rGmolGOBP2 proteins using prokaryotic expression systems. In this article, the DNA sequences of these five GmolPBPs and GmolGOBPs, with the signal peptides removed and restriction sites on both ends, were inserted into the expression vector pET28a(+) linearized with the same restriction enzyme. These vectors were then transformed into Escherichia coli BL21(DE3) and induced by isopropyl-β-d-thiogalactoside (IPTG). Since all five recombinant proteins were expressed in inclusion bodies, they were denatured using 8 M urea and then renatured using a cysteine/cystine REDOX system. The reduced recombinant proteins were purified using an Ni-NTA His Bind Resin column (7Sea Pharmatech Co., Ltd., Shanghai, China). Non-target proteins were washed off with washing buffer (20 mM Tris-HCl (pH 7.4), 20 mM imidazole, 1 mM PMSF, and 250 mM NaCl), and then the target proteins were eluted with elution buffer (20 mM Tris-HCl (pH 7.4), 1 mM PMSF, and 250 mM NaCl) with an increasing concentration of imidazole (50, 100, and 200 mM). Five milliliters of eluents with high target protein content and low levels of contaminants were collected and placed in dialysis tubing (Coolaber, Beijing, China) with a molecular weight cut-off of 3.5 kDa to remove NaCl and imidazole. The purified soluble proteins were stored at −80 °C before use.
(§2) The binding affinities of three rGmolPBPs and two rGmolGOBPs for Z8-14:Ac were determined using an F-2700 fluorescence spectrophotometer (Hitachi, Tokyo, Japan). First, we measured the dissociation constants (Kd) of the rGmolPBPs (or rGmolGOBPs) binding to 1−NPN. Each protein was diluted to 2 μM with 20 mM Tris-HCl buffer (pH 7.4); then, 2 mL of the protein solution was transferred to a quartz cuvette and titrated with 1 mM 1−NPN to a final concentration of 1–18 μM. As the doses of 1−NPN were increased, the increasing amplitude of the fluorescence intensity decreased, and finally, the binding of the protein to 1−NPN reached saturation. The Kd values were calculated using the nonlinear regression method and the Scatchard equation. Second, we measured the inhibitory constant (Ki) of Z8-14:Ac’s competitive binding with each rGmolPBP (or rGmolGOBP) from the protein/1−NPN complex. The initial fluorescence intensity values were measured after a 2 min reaction in 2 mL solution of 20 mM Tris-HCl (pH 7.4) containing 2 µM rGmolPBP (or rGmolGOBP) protein and 2 µM 1−NPN. Then, the solution was titrated with aliquots of 1 mM Z8-14:Ac to obtain final concentrations in the range of 1–14 µM, and the fluorescence intensity value of each reaction was recorded. The Ki values were calculated using the following equation: Ki = [IC50]/(1 + [1 − NPN]/Kd) where IC50 is the concentration of Z8-14:Ac when half of the initial fluorescence intensity value of the rGmolPBP (or GmolGOBP)/1−NPN complex is replaced, [1 − NPN] represents the concentration of free 1−NPN, and Kd is the dissociation constant of the rGmolPBP (or GmolGOBP)/1−NPN complex.

[2] = target: rGmolGOBP2 (Grapholita molesta, UniProt H9XTU6); test: as above
Source text: as §1, §2

[3] = target: rGmolPBP1 (Grapholita molesta, UniProt A0A2R4SBD6); test: as above
Source text: as §1, §2

[4] = target: rGmolGOBP1 (Grapholita molesta, UniProt H9XTU5); test: as above
Source text: as §1, §2

[5] = target: rGmolPBP2 (wild-type) (Grapholita molesta, UniProt A0A059VC28); test: as above
Source text: as §1, §2

[6] = test system: PFM male antennae; test: Electroantennogram (EAG) analysis; set-up: species or system Grapholita funebrana; conditions: 20, 200 and 2000 μg doses
Experimental: (§3) Electroantennogram (EAG) equipment (Syntech, Hilversum, The Netherlands) was used to record the antennal responses of the OFM and PFM adults to Z8-12:Ac, E8-12:Ac, Z8-12:OH, Z8-14:Ac, and Z10-14:Ac. These sex pheromone compounds were diluted with liquid paraffin to prepare a stimulus solution of 100 μg/μL, which was subsequently diluted to 10 and 1 μg/μL. Antenna from 3-day-old OFM and 2- to 4-day-old PFM virgin males were excised at its base, with the distal part of the terminal segment being removed. Then, the treated antenna was attached to electrode holders with SpectraR360 conducting gel. A stimulus controller (model CS-55, Syntegon Technology, Waiblingen, Germany) continuously supplied a humidified air stream at a rate of 500 mL/min. Then, 20 μL of each stimulus solution was adsorbed onto a twice-folded filter paper strip (0.5 cm × 4 cm) placed on the wide section of a l mL pipette tip, which served as an odorant cartridge. Vapor stimuli were delivered by an air compressor into the constant air stream described above, flowing in a copper delivery tube (i.d. 8 mm) with the outlet positioned approximately 1 cm from the antenna. The EAG amplitude tests of the OFM and PFM males’ responses to sex pheromones started with solvent control stimuli (20 μL of liquid paraffin), followed by stimulation with 20, 200, and 2000 μg doses (20 μL of 1.0, 10.0, and 100.0 μg/μL of liquid paraffin solutions, respectively) of stimulus in sequence. The solvent control was performed at the end of the run. To control for variations among antennae, each sample was tested on 10 antennae of different males. The EAG signals and data were analyzed using EAG 2000 software (Syntech, Hilversum, The Netherlands). The corrected EAG amplitude value = absolute EAG amplitude value − (EAGck1 + EAGck2)/2, where EAGck1 and EAGck2 represent the absolute EAG amplitude values of the solvent control before and after measuring each stimulus, respectively. The relative EAG response of the OFM and PFM males to the same doses of sex pheromones were subjected to an analysis of independent sample t-test (p = 0.05) using SPSS version 23.0 (IBM).

[7] = test system: OFM male antennae; test: Electroantennogram (EAG) analysis; set-up: species or system Grapholita molesta; conditions: for EAG response of OFM males: 20, 200 and 2000 μg doses
Experimental: as §3

[8] = test system: PFM males; test: Field trapping with delta traps, pear orchard; type: in vivo, Grapholita funebrana
Experimental: (§4) To determine the inhibitory effects on OFM male adults and the impact on the trapping effects of PFM male adults, varying amounts of Z8-14:Ac (0, 5, 10, 25, 50, 75, 100, 125, 150 μg) or Z10-14:Ac (0, 25, 50, 100, 150, 250, 350, 450, and 550 μg) were added to rubber septa loaded with a constant dosage of the main pheromone (500 μg of Z8-12:Ac and 20 μg of E8-12:Ac) of the PFM. Trapping experiments of Z8-14:Ac were carried out in peach and pear orchards in Yan’an and Xinjiang (China), respectively. Trapping tests of Z10-14:Ac were performed in pear orchards in Xinjiang (China). Each orchard had nine plots, with three plots in one field. Each plot consisted of a linear arrangement of traps loaded with a constant dosage of the main pheromones and different percentages of the secondary pheromone Z8-14:Ac or Z10-14:Ac of the PFM. Plots in the same field were placed 30 m apart, and fields were ≥1 km apart. The traps were hung 1.4 m from the ground on a suspension bracket between two rows of peach or pear trees from 10 June to 25 July 2021 in Xinjiang and from 15 June to 30 July 2021 in Yan’an. The positions of the traps within the plot were randomly arranged. Every 5 days, counts were taken, and the traps were rotated to the adjacent position to avoid any potential position effects. The septa loaded with sex pheromone components were replaced with new ones after every 15 days of suspension. The data were analyzed using a one-way ANOVA, and the differences in the average trapping of OFM and PFM males using sex attractants containing different amounts of Z8-14:Ac or Z10-14:Ac were further analyzed using Tukey’s HSD test, both of which were performed using SPSS 23.0.

[9] = test system: OFM males; test: Field trapping with delta traps, pear orchard; type: in vivo, Grapholita molesta; conditions: pear orchard; for Inhibition Rate of OFM Males: vs 100:4:0
Experimental: as §4

[10] = Z8-12:Ac/E8-12:Ac/Z10-14:Ac 500/20/25 μg (100:4:5)
[11] = Z8-12:Ac/E8-12:Ac/Z10-14:Ac 500/20/50 μg (100:4:10)
[12] = Z8-12:Ac/E8-12:Ac/Z10-14:Ac 500/20/100 μg (100:4:20)
[13] = Z8-12:Ac/E8-12:Ac/Z10-14:Ac 500/20/150 μg (100:4:30)
[14] = Z8-12:Ac/E8-12:Ac/Z10-14:Ac 500/20/250 μg (100:4:50)
[15] = Z8-12:Ac/E8-12:Ac/Z10-14:Ac 500/20/350 μg (100:4:70)
[16] = Z8-12:Ac/E8-12:Ac/Z10-14:Ac 500/20/450 μg (100:4:90)
[17] = Z8-12:Ac/E8-12:Ac/Z10-14:Ac 500/20/550 μg (100:4:110)
[18] = more than 10% of Z10-14:Ac added to Z8-12:Ac and E8-12:Ac (100:4)

Chain of rGmolPBP2 (wild-type) (A0A059VC28 entry or part of it): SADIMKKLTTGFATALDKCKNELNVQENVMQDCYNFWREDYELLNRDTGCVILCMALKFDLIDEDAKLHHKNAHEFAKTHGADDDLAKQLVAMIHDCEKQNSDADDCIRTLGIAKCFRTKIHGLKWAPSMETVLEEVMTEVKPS
Chain of rGmolGOBP1 (H9XTU5 entry or part of it): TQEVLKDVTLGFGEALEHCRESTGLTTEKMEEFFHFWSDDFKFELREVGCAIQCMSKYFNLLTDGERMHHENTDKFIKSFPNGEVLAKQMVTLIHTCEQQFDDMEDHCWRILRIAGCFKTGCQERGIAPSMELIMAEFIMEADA
Chain of rGmolPBP3 (A0A059VBP3 entry or part of it): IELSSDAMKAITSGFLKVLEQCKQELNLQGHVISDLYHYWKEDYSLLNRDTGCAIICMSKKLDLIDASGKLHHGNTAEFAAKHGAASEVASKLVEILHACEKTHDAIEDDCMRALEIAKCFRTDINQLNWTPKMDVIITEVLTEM
Chain of rGmolGOBP2 (H9XTU6 entry or part of it): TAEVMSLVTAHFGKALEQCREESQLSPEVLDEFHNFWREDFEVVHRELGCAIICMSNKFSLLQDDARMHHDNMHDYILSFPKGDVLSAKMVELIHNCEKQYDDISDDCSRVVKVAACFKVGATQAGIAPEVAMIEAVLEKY
Chain of rGmolPBP1 (A0A2R4SBD6 entry or part of it): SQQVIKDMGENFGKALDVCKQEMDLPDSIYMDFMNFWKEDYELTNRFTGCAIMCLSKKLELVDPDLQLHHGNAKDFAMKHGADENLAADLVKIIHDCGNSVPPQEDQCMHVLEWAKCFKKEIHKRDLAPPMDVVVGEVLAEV

SMILES: c1ccc(Nc2cccc3ccccc23)cc1 [1−NPN, N-Phenyl-1-naphthylamine, reference compound]
- Kd [1]: 11.24 ± 0.08 µM
- Kd [2]: 4.32 ± 0.02 µM
- Kd [3]: 1.29 ± 0.02 µM
- Kd [4]: 5.76 ± 0.01 µM
- Kd [5]: 1.09 ± 0.02 µM

SMILES: CCC/C=C/CCCCCCCOC(C)=O [E8-12:Ac, (E)-8-dodecenyl acetate]
- EAG response of PFM males [6]: higher sensitivity
- EAG response of OFM males [7]: higher sensitivity

SMILES: CCC/C=C\CCCCCCCOC(C)=O [Z8-12:Ac, (Z)-8-dodecenyl acetate]
- EAG response of PFM males [6]: higher sensitivity
- EAG response of OFM males [7]: higher sensitivity

SMILES: CCC/C=C\CCCCCCCCCOC(C)=O [Z10-14:Ac, (Z)-10-tetradecenyl acetate]
- EAG response of PFM males [6]: moderate EAG response
- Total PFM Males/Trap [8, 10]: 121.32 ± 12.10 ab Males/Trap
- Total PFM Males/Trap [8, 11]: 101.39 ± 7.72 b Males/Trap
- Total PFM Males/Trap [8, 12]: 102.73 ± 10.21 b Males/Trap
- Total PFM Males/Trap [8, 13]: 66.08 ± 8.27 c Males/Trap
- Total PFM Males/Trap [8, 14]: 62.46 ± 5.63 c Males/Trap
- Total PFM Males/Trap [8, 15]: 51.35 ± 7.21cd Males/Trap
- Total PFM Males/Trap [8, 16]: 41.24 ± 5.10 d Males/Trap
- Total PFM Males/Trap [8, 17]: 42.33 ± 3.95 d Males/Trap
- maximum reduction of the capture of PFM males [8, 18]: ≤ 71.07%
- Total OFM Males/Trap [9, 10]: 125.55 ± 14.47 ab Males/Trap
- Inhibition Rate of OFM Males [9, 10]: 35.04%
- Total OFM Males/Trap [9, 11]: 97.92 ± 10.31 bc Males/Trap
- Inhibition Rate of OFM Males [9, 11]: 49.34%
- Total OFM Males/Trap [9, 12]: 83.33 ± 9.82 cd Males/Trap
- Inhibition Rate of OFM Males [9, 12]: 56.89%
- Total OFM Males/Trap [9, 13]: 33.56 ± 2.24 e Males/Trap
- Inhibition Rate of OFM Males [9, 13]: 82.64%
- Total OFM Males/Trap [9, 14]: 31.28 ± 3.22 e Males/Trap
- Inhibition Rate of OFM Males [9, 14]: 83.82%
- Total OFM Males/Trap [9, 15]: 37.49 ± 3.45 e Males/Trap
- Total OFM Males/Trap [9, 16]: 23.64 ± 1.23 e Males/Trap
- Inhibition Rate of OFM Males [9, 16]: 87.77%
- Total OFM Males/Trap [9, 17]: 29.69 ± 2.18 e Males/Trap
- Inhibition Rate of OFM Males [9, 17]: 84.64%
- maximum reduction of the capture of OFM males [9, 18]: up to 87.77%
- EAG values of OFM males compared with PFM males ([7]; 20 μg): absence of significant difference
- EAG response of OFM males [7]: moderate EAG response
- EAG values of OFM males compared with PFM males ([7]; 200 and 2000 μg): significantly greater than that of PFM males
